What all share (assay type): biochemical
The target in one assay is Recombinant Csk (Homo sapiens, UniProt P41240). In words: Csk tyrosine kinase activity, poly E4Y / 32P-ATP phosphorylation assay.
For the next assay, the target named is T1, Recombinant human Src (Homo sapiens, UniProt P12931).
T1 construct: made in house; host or cells: baculovirus-insect cell system
As to the kind of experiment: Src tyrosine kinase activity, poly E4Y / 32P-ATP phosphorylation assay.

For the next assay, the target named is FGF receptor (FGFr). In words: FGFr tyrosine kinase activity, poly E4Y / 32P-ATP phosphorylation assay.
The mark [1] stands for this setting: Table 2, Formula I compounds, NI = no inhibition at 100 μg/mL.
[2] abbreviates: Table 4, Formula III compounds, NI = no inhibition at 100 μg/mL.
The mark [3] stands for this setting: Table 3, Formula II compounds, NI = no inhibition at 100 μg/mL.
[4] abbreviates: poly E4Y / 32P-ATP, Formula IV compounds.

The IC50 is the concentration at which inhibition is half-maximal.

Sequence of Recombinant Csk (P41240 whole entry, species assumed): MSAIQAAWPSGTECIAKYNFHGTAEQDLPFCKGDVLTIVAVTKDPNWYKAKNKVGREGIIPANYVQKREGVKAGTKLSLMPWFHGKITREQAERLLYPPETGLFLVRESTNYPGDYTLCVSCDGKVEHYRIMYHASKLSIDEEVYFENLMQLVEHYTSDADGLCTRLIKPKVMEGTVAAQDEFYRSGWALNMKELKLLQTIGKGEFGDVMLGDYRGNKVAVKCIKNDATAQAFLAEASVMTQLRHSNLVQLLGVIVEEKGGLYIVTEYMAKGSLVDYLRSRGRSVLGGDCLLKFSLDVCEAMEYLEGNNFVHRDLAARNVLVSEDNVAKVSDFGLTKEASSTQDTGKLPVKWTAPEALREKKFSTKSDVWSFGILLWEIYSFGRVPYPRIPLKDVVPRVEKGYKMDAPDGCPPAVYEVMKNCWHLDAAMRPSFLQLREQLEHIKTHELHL
T1 sequence (P12931 whole entry): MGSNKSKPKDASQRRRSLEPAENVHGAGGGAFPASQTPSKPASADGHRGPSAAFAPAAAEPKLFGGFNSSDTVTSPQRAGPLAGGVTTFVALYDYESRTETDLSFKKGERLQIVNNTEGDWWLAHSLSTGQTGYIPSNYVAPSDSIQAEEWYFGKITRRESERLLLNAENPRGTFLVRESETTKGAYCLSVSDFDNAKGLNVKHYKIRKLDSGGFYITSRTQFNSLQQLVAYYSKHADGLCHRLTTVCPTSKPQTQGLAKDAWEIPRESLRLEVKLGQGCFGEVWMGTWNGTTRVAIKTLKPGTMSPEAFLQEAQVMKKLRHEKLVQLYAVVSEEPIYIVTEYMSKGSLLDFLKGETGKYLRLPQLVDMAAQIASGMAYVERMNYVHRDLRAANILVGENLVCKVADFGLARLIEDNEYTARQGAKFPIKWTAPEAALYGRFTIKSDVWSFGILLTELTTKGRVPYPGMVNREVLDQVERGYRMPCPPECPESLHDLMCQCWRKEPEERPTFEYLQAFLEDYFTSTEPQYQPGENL

Consider `COc1ccccc1Sc1cc(NS(=O)(=O)c2ccc(C)cc2)c(NS(=O)(=O)c2ccc(C)cc2)cc1[N+](=O)[O-]` [Compound 4b, N-[4-(2-methoxy-phenylsulfanyl)-5-nitro-2-(4-toluenesulfonylamino)-phenyl]-4-toluenesulfonamide], for which the IC50 stood at 15 µM at Recombinant Csk (setting [1]), 7 µM on Recombinant human Src (setting [1]) and 20 µM against FGF receptor (FGFr) (setting [1]).

`COC(=O)c1cc(NS(=O)(=O)c2ccc(C)cc2)c(NS(=O)(=O)c2ccc(C)cc2)cc1Oc1ccc(OC)cc1` [Compound 33, Methyl 2-(4-methoxy-phenoxy)-4,5-bis-(4-toluenesulfonylamino)-benzoate]: the concentration for half-maximal inhibition (IC50) was above 168 µM at Recombinant Csk (setting [2]) and 67 µM at Recombinant human Src (setting [2]). On FGF receptor (FGFr) (setting [2]), the “IC50 (μM) FGFr” value is recorded as “NI (NI = no inhibition at 100 μg/mL)”.

Consider `Cc1ccc(S(=O)(=O)Nc2cc(Sc3cccc(Cl)c3)c([N+](=O)[O-])cc2NS(=O)(=O)c2ccc(C)cc2)cc1` [Compound 4g, N-[4-(3-chloro-phenylsulfanyl)-5-nitro-2-(4-toluenesulfonylamino)-phenyl]-4-toluenesulfonamide], for which the values for the concentration for half-maximal inhibition (IC50) on Recombinant Csk (setting [1]), at Recombinant human Src (setting [1]) and against FGF receptor (FGFr) (setting [1]) were 9.1 µM, 1.6 µM and 5.8 µM, respectively.

As for `COc1ccc(Oc2ccc(NS(=O)(=O)c3ccc(C(C)(C)C)cc3)c(NS(=O)(=O)c3ccc(C(C)(C)C)cc3)c2)cc1` [Compound 12o, N-[2-(4-t-butyl-benzenesulfonylamino)-4-(4-methoxy-phenoxy)-phenyl]-4-t-butyl-benzenesulfonamide], the IC50 was above 161 µM at Recombinant Csk (setting [3]), 7.2 µM at Recombinant human Src (setting [3]) and 22 µM at FGF receptor (FGFr) (setting [3]).

Regarding `COc1ccc(Oc2ccc(NS(=O)(=O)c3c(C)cc(C)cc3C)c(NS(=O)(=O)c3c(C)cc(C)cc3C)c2)cc1` [Compound 12q, N-[4-(4-methoxy-phenoxy)-2-(2,4,6-trimethylbenzenesulfonylamino)-phenyl]-2,4,6-trimethylbenzenesulfonamide], the concentration for half-maximal inhibition (IC50) on Recombinant Csk (setting [3]) was above 168 µM; on Recombinant human Src (setting [3]) it was 39 µM; against FGF receptor (FGFr) (setting [3]), 42 µM.

For `Cc1ccc(S(=O)(=O)Nc2ccc(OCc3ccccc3Cl)cc2NS(=O)(=O)c2ccc(C)cc2)cc1` [Compound 15d, N-[4-(2-chloro-benzyloxy)-2-(4-toluenesulfonylamino)-phenyl]-4-toluenesulfonamide], the results for the IC50 at Recombinant Csk (setting [3]), at Recombinant human Src (setting [3]) and against FGF receptor (FGFr) (setting [3]) were 59 µM, 14 µM and 66 µM, respectively.

Regarding `COc1ccc(Oc2ccc(NS(=O)(=O)c3ccccc3)c(NS(=O)(=O)c3ccccc3)c2)cc1` [Compound 12n, N-[2-benzenesulfonylamino-4-(4-methoxy-phenoxy)-phenyl]-benzenesulfonamide], the 50% inhibitory concentration (IC50) on Recombinant Csk (setting [3]) is above 196 µM; on Recombinant human Src (setting [3]), 29 µM; at FGF receptor (FGFr) (setting [3]), 24 µM.

For `COc1ccc(OCc2ccc(OC)c(NS(=O)(=O)c3ccc(C)cc3)c2)cc1` [Compound 66, N-[2-methoxy-5-(4-methoxy-phenoxymethyl)-phenyl]-4-toluenesulfonamide], the concentration for half-maximal inhibition (IC50) on Recombinant Csk (setting [4]) is above 242 µM; at Recombinant human Src (setting [4]) it was 119 µM; against FGF receptor (FGFr) (setting [4]), 162 µM.

In the case of `COc1ccc(Oc2ccc(NS(=O)(=O)c3ccc(OC)cc3)c(NS(=O)(=O)c3ccc(OC)cc3)c2)cc1` [Compound 12k, N-[2-(4-methoxy-benzenesulfonylamino)-4-(4-methoxy-phenoxy)-phenyl]-4-methoxy-benzenesulfonamide], the 50% inhibitory concentration (IC50) on Recombinant Csk (setting [3]) turned out to be 88 µM; at Recombinant human Src (setting [3]) it was 21 µM; against FGF receptor (FGFr) (setting [3]) it was 44 µM.

Turning to `CS(=O)(=O)Nc1cc(Sc2ccc(Cl)cc2)c([N+](=O)[O-])cc1NS(C)(=O)=O` [Compound 4u, N-[5-(4-chloro-phenylsulfanyl)-2-methanesulfonylamino-4-nitro-phenyl]-methanesulfonamide], the IC50 at Recombinant Csk (setting [1]) was found to be 333 µM; at Recombinant human Src (setting [1]) it was 590 µM; on FGF receptor (FGFr) (setting [1]) it was 188 µM.

On to `COc1ccc(Oc2ccc(NS(=O)(=O)c3ccc(C)cc3)c(OCC(=O)O)c2)cc1` [Compound 65, [5-(4-methoxy-phenoxy)-2-(4-toluenesulfonylamino)-phenoxy]-acetic acid], for which the concentration for half-maximal inhibition (IC50) at Recombinant Csk (setting [4]) is above 225 µM; at Recombinant human Src (setting [4]), 169 µM. Also, the “IC50 (μM) FGFr” value against FGF receptor (FGFr) (setting [4]) is given as “NI (NI = no inhibition at 100 μg/mL)”.

As for `Cc1ccc(C(=O)Nc2cc([N+](=O)[O-])c(Sc3ccc(Cl)cc3)cc2N)cc1` [Compound 56, N-[2-amino-4-(4-chloro-phenylsulfanyl)-5-nitro-phenyl]-4-toluamide], the IC50 at Recombinant Csk (setting [4]) is above 242 µM; on Recombinant human Src (setting [4]), above 242 µM; against FGF receptor (FGFr) (setting [4]), 410 µM.

For the compound `Cc1ccc(S(=O)(=O)Nc2cc(-c3ccccc3)c([N+](=O)[O-])cc2NS(=O)(=O)c2ccc(C)cc2)cc1` [Compound 8, N-[5-nitro-4-phenyl-2-(4-toluenesulfonylamino)-phenyl]-4-toluenesulfonamide], the figures for the IC50 at Recombinant Csk (setting [1]), on Recombinant human Src (setting [1]) and against FGF receptor (FGFr) (setting [1]) were 10.4 µM, 1.7 µM and 4.9 µM, respectively.

In the case of `Cc1ccc(S(=O)(=O)Nc2ccc(Sc3ccc(Cl)cc3)cc2NS(=O)(=O)c2ccc(C)cc2)cc1` [Compound 12ff, N-[4-(4-chloro-phenylsulfanyl)-2-(4-toluenesulfonylamino)-phenyl]-4-toluenesulfonamide], the IC50 at Recombinant Csk (setting [3]) was found to be 8.6 µM; at Recombinant human Src (setting [3]), 4 µM; at FGF receptor (FGFr) (setting [3]), 3.6 µM.

For `Cc1ccc(S(=O)(=O)Nc2cc(Sc3ccccc3C(C)C)c([N+](=O)[O-])cc2NS(=O)(=O)c2ccc(C)cc2)cc1` [Compound 4n, N-[4-(2-isopropyl-phenylsulfanyl)-5-nitro-2-(4-toluenesulfonylamino)-phenyl]-4-toluenesulfonamide], the IC50 turned out to be 5.7 µM on Recombinant Csk (setting [1]), 1.3 µM on Recombinant human Src (setting [1]) and 4.3 µM at FGF receptor (FGFr) (setting [1]).

Regarding `COc1ccc(NS(=O)(=O)c2ccc(C)cc2)c(NS(=O)(=O)c2ccc(C)cc2)c1` [Compound 12v, N-[4-methoxy-2-(4-toluenesulfonylamino)-phenyl]-4-toluenesulfonamide], the IC50 at Recombinant Csk (setting [3]) is above 224 µM; on Recombinant human Src (setting [3]), 69 µM; at FGF receptor (FGFr) (setting [3]), 145 µM.

As to `Cc1ccc(S(=O)(=O)Nc2cc(N)c(Sc3ccc(Cl)cc3)cc2NS(=O)(=O)c2ccc(C)cc2)cc1` [Compound 23, N-[5-amino-4-(4-chloro-phenylsulfanyl)-2-(4-toluenesulfonylamino)-phenyl]-4-toluenesulfonamide], the IC50 is 280 µM at Recombinant Csk (setting [2]), 58 µM at Recombinant human Src (setting [2]) and 56 µM on FGF receptor (FGFr) (setting [2]).

In the case of `Cc1ccc(S(=O)(=O)Nc2ccc(-c3ccc(Cl)cc3)cc2NS(=O)(=O)c2ccc(C)cc2)cc1` [Compound 21, N-[4-(4-chloro-phenyl)-2-(4-toluenesulfonylamino)-phenyl]-4-toluenesulfonamide], the half-maximal inhibitory concentration (IC50) at Recombinant Csk (setting [3]) is above 190 µM; at Recombinant human Src (setting [3]), 8.6 µM; at FGF receptor (FGFr) (setting [3]), 23 µM.

`Cc1ccc(S(=O)(=O)Nc2ccc(Oc3ccc(CC(=O)O)cc3)cc2NS(=O)(=O)c2ccc(C)cc2)cc1` [Compound 12aa, {4-[3,4-bis(4-toluenesulfonylamino)-phenoxy]-phenyl}-acetic acid]: the IC50 at Recombinant Csk (setting [3]) was found to be 77 µM; at Recombinant human Src (setting [3]), 6.7 µM; at FGF receptor (FGFr) (setting [3]), 10.6 µM.

Turning to `COc1ccc(Oc2ccc(NS(=O)(=O)c3ccc(Oc4ccccc4)cc3)c(NS(=O)(=O)c3ccc(Oc4ccccc4)cc3)c2)cc1` [Compound 12e, N-[4-(4-methoxy-phenoxy)-2-(4-phenoxy-benzenesulfonylamino)-phenyl]-4-phenoxy-benzenesulfonamide], the values for the IC50 on Recombinant Csk (setting [3]), on Recombinant human Src (setting [3]) and against FGF receptor (FGFr) (setting [3]) were above 144 µM, 19 µM and 46 µM, respectively.
